From the NIST ThermoML archive (doi:10.1021/acs.jced.9b00406) come the findings set out here.

For series [1] the following is noted: Crystal; DSC.
The nature of series [2]: Molar enthalpy of transition or fusion. To be noted: Crystal; DSC.

Numbers after ± are expanded uncertainties.

Take `Cc1cnc(C(=O)O)cn1` [2-methylpyrazine-5-carboxylic acid]: in series [1], the Triple point temperature was determined as 440.35 ± 1.2 K. The “Molar enthalpy of transition or fusion” value in series [2] stood at 6.84 ± 0.237 kcal/mol.
